Reference: patent US20240366648A1, “NAD-AUGMENTATION THERAPY FOR PARKINSON'S DISEASE” (Vestlandets Innovasjonsselskap AS (VIS), priority 2021, published 2024)

Tests used:
patients with PD = test: MDS-UPDRS / Hoehn & Yahr clinical rating, phase I trial; assay type: in vivo, human
Procedure: A single-center, double-blinded, randomized, placebo-controlled phase I trial of oral NR supplementation in newly diagnosed patients with PD was conducted. […] Due to the early onset, this patient underwent genetic investigation with whole-exome sequencing and SNP-chip based genome-wide copy number variation analysis, which excluded pathogenic mutations in PD-related genes, including PINK1 and PRKN. screening. Patient recruitment, inclusion, and follow-up was carried out by a GCP certified investigator. Sample size of 30 participants was chosen based on previously reported brain metabolic network analyses. Thirty PD patients were randomly assigned (Block size 6, allocation 1:1) to 500 mg NR, provided in the form of nicotinamide riboside chloride ([…]® from Chromadex), or placebo twice per day, 12 hours apart, using the electronic Case Report Form (Viedoc.com). The drug containers were sequentially marked by an independent third party. The […]®) and placebo were provided by ChromaDex, USA. Each NR capsule contained 250 mg of NR. Placebo capsules contained microcrystalline cellulose. The vials and capsules containing NR and placebo were identical in shape, colour, and smell. Study drug compliance was calculated from counting returned number of study capsules and self-reporting. Participants, examining physicians, medical- and research personnel were blinded for the duration of the trial. Sample size was determined by comparing previous literature with respect to the primary objective. At screening for trial entry, candidates underwent physical and neurological examination, brain MRI, and […]. Eligible patients who entered the trial were assessed at baseline (visit 1, V1) and after four weeks of exposure to either NR or placebo (visit 2, V2). At both visits, patients underwent physical and neurological examination, including assessment by the Movement Disorder Society Unified Parkinson's Disease Rating Scale section I-IV (MDS-UPDRS), and biological sampling. MR-PET was performed within one week prior to visit 1, and at visit 2. All participants remained naïve for antiparkinson drugs for the duration of the trial. All clinical assessments were performed by a blinded movement disorders expert. Each patient was examined by the same neurologist at both visits. Methodological details on each procedure are provided below. Safety was monitored through routine clinical blood tests and registration of adverse events. Adverse events (AE) were recorded and scored by the investigative physician. […] The AE relation to the study drug was scored as (1) unrelated, (2) unlikely, (3) possible, (4) probable or (5) definitely. The between visit change ([visit 2]-[visit 1]) in MDS-UPDRS (total of subsections I-III; and individual subsections I, II and III) was compared between the NR and placebo groups using independent Student's t-test. In addition, the between visit change in MDS-UPDRS (total and subsections) within the NR, MRS-responder, and placebo groups was assessed by paired Student's t-test. For the 31P-MRS analyses, the change in measured metabolites between visit 1 and visit 2 was assessed in the placebo- and NR group using paired Student's t-test. In addition, the between-visit change in NAD/ATP-α was compared between the NR and placebo group by independent Student's t-test. For PET analyses, changes in network scores with treatment were evaluated for each group separately using paired Student's t-tests or permutation tests. Relationships between network values, NAD levels and MDS-UPDRS motor ratings or between treatment-related changes in these variables were evaluated using Pearson's product-moment correlations; Spearman rank-order correlation coefficients were computed for non-normal distributions of the variables. These statistical tests were performed using SPSS (SPSS Inc., Chicago, IL); results were considered significant for p≤0.05 (two-tailed). […]

total NAD in PBMCs = test: NAD measurement in PBMCs, NADMed method; assay type: in vivo, human
Description: In addition to these analyses, we measured NAD levels in patient PBMC using a different approach (NADMed method). […] However, the trend was clear and convincing.
FIG. 16: NAD measurement in PBMCs from the study cohort, using the NADMed method.

individuals with PD = test: Phase II trial, brain MRI at baseline and week 52 (Example 3); assay type: in vivo, human; details: 80 individuals who completed 52 weeks (1000 mg NR or placebo, blinded)
Procedure: To further test NR as a neuroprotective therapy for PD, and in particular to assess NR in delaying nigrostriatal degeneration or denervation, and clinical disease progression in patients with early PD, a multi-centre phase II randomized double-blinded clinical trial is performed, comparing NR to placebo in individuals with early stage PD.
Each capsule of NR contains 250 mg of NR. Patients are administered orally 2 capsules (each 250 mg) two times a day (1000 mg daily total) for the duration of the study (52 weeks). Placebo capsules are administered similarly (2 capsules two times a day). The study medication is to be taken every day during the treatment period, including prior to study visits and imaging.
The present study is a randomized, double-blind phase 11 trial, where a total of 400 individuals with PD receive 1000 mg NR or placebo for a period of 52 weeks. Extensive medical testing and screening, including brain MRI, is performed both at baseline and end-of-study (i.e., after 52 weeks of exposure). […] The therapy can therefore be considered not to be associated with an increase in glioma or brain neoplasm prevalence over the duration of treatment.

drosophila fly models = details: Schöndorf et al. 2018; cited from earlier work
rats = details: rat, in vivo; cited from earlier work
[1] = Visit 1 (baseline), MRS Responders N=10
[2] = Visit 1 (baseline), NR group N=15
[3] = Visit 2 (after four weeks), MRS Responders N=10
[4] = Visit 2 (after four weeks), NR group N=15

NC(=O)c1ccc[n+]([C@@H]2O[C@H](CO)[C@@H](O)[C@H]2O)c1 [NR, nicotinamide riboside]
mean decrease in MDS-UPDRS between visits (patients with PD; MRS-responder subgroup (n=10), paired t-test p=0.071): 1.9±2.78
clinical change as measured by the UPDRS scale (patients with PD; NR 1000 mg daily, one month): mild clinical improvement
motor symptoms in PD patients who received NR (patients with PD; NR 1000 mg daily, one month): no worsening of motor symptoms
Hoehn & Yahr Stage, mean (patients with PD; [1]): 1.7
MDS-UPDRS I, mean score (patients with PD; [1]): 6.2
MDS-UPDRS II, mean score (patients with PD; [1]): 6.4
MDS-UPDRS III, mean score (patients with PD; [1]): 29.6
Total score MDS-UPDRS (I-III), mean (patients with PD; [1]): 42.2
Hoehn & Yahr Stage, mean (patients with PD; [2]): 1.8
MDS-UPDRS I, mean score (patients with PD; [2]): 6.3
MDS-UPDRS II, mean score (patients with PD; [2]): 7.9
MDS-UPDRS III, mean score (patients with PD; [2]): 31.1
Total score MDS-UPDRS (I-III), mean (patients with PD; [2]): 45.2
Hoehn & Yahr Stage, mean (patients with PD; [3]): 1.8
MDS-UPDRS I, mean score (patients with PD; [3]): 5.3
MDS-UPDRS II, mean score (patients with PD; [3]): 6.4
MDS-UPDRS III, mean score (patients with PD; [3]): 28.7
Total score MDS-UPDRS (I-III), mean (patients with PD; [3]): 40.4
Hoehn & Yahr Stage, mean (patients with PD; [4]): 1.9
MDS-UPDRS I, mean score (patients with PD; [4]): 5.4
MDS-UPDRS II, mean score (patients with PD; [4]): 8.3
MDS-UPDRS III, mean score (patients with PD; [4]): 30.5
Total score MDS-UPDRS (I-III), mean (patients with PD; [4]): 44.1
mean decrease in MDS-UPDRS between visits (patients with PD; nine individuals with >10% increase in cerebral NAD, paired t-test p=0.017): 2.33±2.35
NAD levels in PBMC, between visits (total NAD in PBMCs; NR group, did not reach statistical significance in paired t-test): increase
between visit change in PBMC NAD levels, NR vs placebo group (total NAD in PBMCs; p=0.0256): significantly higher increase
cases of glioma or other brain neoplasms on brain MRI (individuals with PD): no cases of glioma or any other brain neoplasms
mitochondrial defects and dopaminergic neuronal loss in drosophila fly models (drosophila fly models): rescues mitochondrial defects and age-related dopaminergic neuronal loss
non-lethal oral dose (rats): ≥ 5000 mg/kg
